Experimental data taken from PubChem BioAssay (NCI).
Values joined by “and” are separate entries in the source; they are usually repeats but may differ in a detail not shown here. Equal entries are not always repeated.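 Dose response: 5 concentrations. Exposure: 48 h. Format: 96-well plates. Endpoint: linear interpolation; highest concentration if not reached. GI50: concentration for 50% inhibition of growth. At the TGI there is no net growth.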

Each molecule was assayed on SNB-19 CNS (assay: inhibition of tumour cell growth, NCI panel, 48 h).

Cc1ccc(S(=O)(=O)N(C=O)N=C2CCN(Cc3ccccc3)CC2)cc1 and CN1CC(=O)N2Cc3ccccc3-n3cccc3C2C1 (stereo unspecified) cannot be ordered by TGI: greater than 100 µM for the first, greater than 100 µM for the second.

CC(C)C(CCl)NC(=O)c1cccc(C(=O)N[C@H](CCl)C(C)C)n1 (stereo in doubt) and CCC(=O)CC(=O)CCC(=O)Nc1cc(C)ccc1C cannot be ordered by TGI: greater than 100 µM for the first, greater than 100 µM for the second.

First: NC(N)=N/N=C/c1c(-c2ccsc2)nc2sccn12
Second: O=c1/c(=C/c2ccccc2[N+](=O)[O-])sc2nnc(-c3ccco3)n12
The TGI of the first is 1.7-fold lower: 32.6 µM for the first, 56.3 µM for the second.

Compared with CC(=O)CCn1ncc(Cl)c(Cl)c1=O, Cc1cn2c(=O)c3ncn(C4OC(CO)C(O)C4O)c3n(C)c2n1 (stereo unspecified) is higher in TGI: 32.9 µM for the first, greater than 100 µM for the second.

Going from C[N+](C)(C)CC1CCCc2ccccc2C1=O (stereo unspecified) to Cc1ccc(SC2c3ccc(C)cc3Oc3nc(N)c(C#N)c(N)c32)cc1 (stereo unspecified), the TGI falls from 85.6 µM to 3.71 µM (23-fold).

For NC(=S)N/N=C/C(=O)O, the TGI was greater than 100 µM.

First: NC(N)=N/N=C/c1c(-c2ccsc2)nc2sccn12
Second: Cc1ccc(SC2c3ccc(C)cc3Oc3nc(N)c(C#N)c(N)c32)cc1 (stereo unspecified)
The GI50 of the first is 9-fold higher: 16.7 µM for the first, 1.86 µM for the second.

Molecule NC(=S)N/N=C/C(=O)O has a GI50 greater than 100 µM.

The molecules below were run on IGROV1 ovarian (assay: inhibition of tumour cell growth, NCI panel, 48 h).

In the case of Clc1ccc2c(c1)[nH]c1c2nc2ccccn21, the TGI is reported as 85.8 µM and > 100 µM.

Going from CCOC(=O)c1cnc2c(ccc3[nH]n(C)nc32)c1=O to CCOC(=O)C(C#N)C1=CC(=O)C(=O)c2ccc(OC)cc21 (stereo unspecified), the TGI falls from greater than 100 µM to 35.2 µM.

NC(=S)N/N=C(\CC1OC(=O)c2ccccc21)c1ccc(Cl)cc1 (stereo unspecified) and CC1(C)COC(C2(C)C(=O)C=C(c3ccccc3)c3ccccc32)=N1 (stereo unspecified) cannot be ordered by TGI: greater than 100 µM for the first, greater than 100 µM for the second.

Going from COc1ccc2occ(CCC(=O)O)c2c1 to COc1ccc(Sc2[nH]c(C(C)=O)c3ccccc23)cc1, the TGI falls from greater than 100 µM to 43 µM.

Going from COC(=O)C(C(=O)c1ccccc1)C(C(=O)C(=O)Nc1ccc(OC)cc1OC)C(=O)C(=O)c1ccc(C)cc1 (stereo unspecified) to Cc1ccc(S(=O)(=O)Nc2ccccc2C=O)cc1, the TGI falls from greater than 100 µM to 38.3 µM.

First: O=C(Nc1ccn(CCO)c(=O)n1)c1ccccc1
Second: O=C1c2ccccc2C(=O)N1CCn1ccc(NC(c2ccccc2)(c2ccccc2)c2ccccc2)nc1=O
The TGI of the first is higher: greater than 100 µM for the first, 58.4 µM for the second.

O=C1CCC2(c3ccc(Cl)cc3)Nc3ncccc3N12 (stereo unspecified) and Cc1ccc(S(=O)(=O)N(C=O)N=C2CCN(Cc3ccccc3)CC2)cc1 cannot be ordered by TGI: greater than 100 µM for the first, greater than 100 µM for the second.

Going from C#CCOc1cccc(-c2ncc3cc(NC(=O)CCl)ccc3n2)c1 to Cc1cc(Nc2ccc(NC(=O)c3ccc(Nc4ccnc5ccccc45)cc3)cc2)nc(N)n1, the TGI rises from 4.01 µM to 63.5 µM (16-fold).

Compared with CC12C/C(=C\c3ccccc3)C(=O)C3C1CCCC32, Nc1ccc([N+](=O)[O-])cc1N=C/C=C/c1ccccc1 is lower in TGI: greater than 100 µM for the first, 42.7 µM for the second.

OC(CC1SCCCS1)c1ccccc1 (stereo unspecified) and CCC12CCCN(Cc3ccccc3)C1c1c(n(C)c3ccccc13)CC2 (stereo unspecified) cannot be ordered by TGI: greater than 100 µM for the first, greater than 253 µM for the second.

CCCCOC(=O)CNC(=O)OC/C=C/C#CC#C/C=C/COC(=O)NCC(=O)OCCCC and CCC(=O)CC(=O)CCC(=O)Nc1cc(C)ccc1C cannot be ordered by TGI: greater than 100 µM for the first, greater than 100 µM for the second.

Going from CC(C)(C)NNC(=O)CCn1[nH]c(=O)c(Cl)c(Cl)c1=O to CC(=O)CCn1ncc(Cl)c(Cl)c1=O, the TGI falls from greater than 100 µM to 35.9 µM.

O=CCC1CCCCC1 and O=C1CCC(Cl)=CC2CCCN12 (stereo unspecified) cannot be ordered by TGI: greater than 100 µM for the first, greater than 100 µM for the second.

CSc1nc(=O)n(CCC#N)nc1SC and CCN(CC)CCCN1CCc2c([nH]c3ccccc23)C1c1cccnc1 (stereo unspecified) cannot be ordered by TGI: greater than 100 µM for the first, greater than 100 µM for the second.

COC(=O)C1c2cc3c(cc2C(OC2OC(C)C(OC)C(C)(OC)C2OC)CC1(C)O)C(=O)c1c(O)cc2c(c1C3=O)OC1OC2(C)C(O)C([N+](C)(C)[O-])C1O (stereo unspecified) and CNCc1ccccc1-c1csc([C@@H](C)Nc2nc(C)nc3cc(OC)c(OC)cc23)c1 are within 1.5-fold of each other in TGI: 4.22 µM for the first, 5.23 µM for the second.

Nc1nc(Cl)cc(NCCCCCCCCNc2cc(Cl)nc(N)n2)n1 and c1ccc2cc(-c3cc4ccccc4s3)ccc2c1 cannot be ordered by TGI: greater than 100 µM for the first, greater than 100 µM for the second.

CC(C)N(C(=O)C12C3C4C1C1C4(C#N)C3C12C#N)C(C)C (stereo unspecified) and CC(C)C(CCl)NC(=O)c1cccc(C(=O)N[C@H](CCl)C(C)C)n1 (stereo in doubt) cannot be ordered by TGI: greater than 100 µM for the first, greater than 100 µM for the second.

Going from CC[As](CC)SC[C@H](C)C(=O)N1CCC[C@H]1C(=O)O to O=c1/c(=C/c2ccccc2[N+](=O)[O-])sc2nnc(-c3ccco3)n12, the TGI rises from 1.11 µM to 56.3 µM (51-fold).

Going from COc1ccc(Sc2[nH]c(C(C)=O)c3ccccc23)cc1 to CNCc1ccccc1-c1csc([C@@H](C)Nc2nc(C)nc3cc(OC)c(OC)cc23)c1, the GI50 falls from 11.8 µM to 1.4 µM (8.4-fold).

First: C#CCOc1cccc(-c2ncc3cc(NC(=O)CCl)ccc3n2)c1
Second: Cc1cc(Nc2ccc(NC(=O)c3ccc(Nc4ccnc5ccccc45)cc3)cc2)nc(N)n1
The GI50 of the first is 8.3-fold lower: 1.8 µM for the first, 15 µM for the second.

Going from CCCCOC(=O)CNC(=O)OC/C=C/C#CC#C/C=C/COC(=O)NCC(=O)OCCCC to CC[As](CC)SC[C@H](C)C(=O)N1CCC[C@H]1C(=O)O, the GI50 falls from greater than 100 µM to 0.214 µM.

Molecule Nc1ccc([N+](=O)[O-])cc1N=C/C=C/c1ccccc1 has a GI50 of 7.48 µM.
